Results from PMC10855552, “Hydrophilic Reduction-Resistant Spin Labels of Pyrrolidine and Pyrroline Series from 3,4-Bis-hydroxymethyl-2,2,5,5-tetraethylpyrrolidine-1-oxyl” (International Journal of Molecular Sciences, 2024).
Like-named read-outs stand apart in the source and are kept apart here.

How the values were obtained:
[1] = Kinetics of nitroxide reduction with ascorbate in the presence of glutathione, followed by EPR; type: physicochemical; details: ascorbate 100–300 mM, glutathione 5 mM, 5 mM phosphate-citrate-borate buffer, pH 7.4, 25 °C; values are kred × 10^4
Description: (§1) For kinetic measurements in water, stock solutions of nitroxide, ascorbic acid and glutathione in phosphate-citrate-borate buffer (5 mM, pH 7.4) were prepared, and pH was adjusted to 7.4 with NaOH or HCl. All the solutions were deoxygenated with argon, carefully and quickly mixed in a small tube to attain final concentrations (nitroxide, 0.2–04 mM; GSH, 5 mM; and ascorbate, 100–300 mM) and were placed into an EPR capillary (50 μL). The choice of acsorbate concentration is a compromise between the low reduction rate, which requires very long experiment time and deviations of the kinetics from linearity at higher ascorbate concentrations due to ionic strength effects. Since the ascorbate oxidation is slow under these conditions, the 5 mM concentration of GSH was sufficient to suppress the reverse reaction of ascorbate radical with the hydroxylamine, because the rate of the ascorbate radical formation was low. The increase in GSH concentration produced little effect on the final reduction rate constant values. The capillary was sealed on both sides and placed into the EPR resonator. The decay of amplitude of the low-field component of the EPR spectrum was followed to obtain the kinetics. The initial part of the decay curves (up to 20 min) was used for fitting. Kinetics of the decay was fitted to a monoexponential function to calculate the first-order rate constants. Then, these constants were divided by the concentration of ascorbic acid to calculate the second-order reaction constants. Partition coefficients in a water–octanol mixture were estimated from the amplitudes of the EPR spectra of a nitroxide in water after extensive shaking with different portions of added octanol and separation using centrifugation.

[2] = pH dependence of EPR spectra (titration), pK by fitting; type: physicochemical; details: for pK, first protonation (free base to monocation): transition at high pH; for pK, first protonation (free base to monocation) / pKa, second protonation (monocation to dication): EPR titration; for pKa, second protonation (monocation to dication): transition at low pH; for pK (pH dependence of EPR spectra): amino group protonation, 5 mM phosphate-citrate-borate buffer, 25 °C
Description: The pH-dependences of the EPR spectra were investigated using the 0.2 mM solutions of the nitroxides in 5 mM phosphate-citrate-borate buffer on a Bruker ER-200D-SRC spectrometer in 50 µL glass capillary for 0.2 mM radical solutions. Spectrometer settings: frequency, 9.87 GHz; microwave power, 5.0 mW; modulation amplitude, 0.1 mT; time constant, 50–100 ms; and conversion time, 50.12 ms. Small portions of 0.1–1 N HCl or 0.1–1 N NaOH were added to the stirred solution of a nitroxide in buffer at 25 °C, while the pH was controlled using pH-meter. After the equilibrium was established, the samples were taken from the solution and the EPR spectra were measured. The experimental points were fitted with the Equation (1) to obtain the pKa values. (1) aN(pH)=(p1+p2×10^pK1−pH+p3×10^pK1+pK2−2×pH)/1+10^pK1−pH+10^pK1+pK2−2×pH

[3] = Partition in octanol/aqueous 5 mM phosphate-citrate-borate buffer pH 7.4, estimated from EPR amplitudes; type: physicochemical; details: for partition octanol/buffer, result in words: after shaking with buffer pH 7.4; for partition coefficient (Kp): octanol/aqueous 5 mM phosphate-citrate-borate buffer pH 7.4
Description: Partition in octanol-water mixtures for ionizable compounds may depend on pH, and the pH changes may result from addition of the compound. Therefore, phosphate-citrate-borate buffer (5 mM, pH 7.4) was used for Kp measurements to make the partition closer to physiological conditions. […] Although monoamino derivatives 11 and 13 mainly exist in protonated form at pH 7.4, they still remain lipophilic and, therefore, should permeate cells. Amino groups are known to provide higher retention/intracellular accumulation due to transmembrane potential or ion-trapping effect. This effect was exploited in design of nitroxide contrast agents for MRI and radioprotectors. Cellular accumulation of spin labels like 11 and 13 may help to increase efficacy spin labeling using CuAAC or SPAAC.
as §1

Solubility in water = type: physicochemical
[4] = values are kred × 10^4; cited from earlier work

CCC1(CC)C(CO)C(CNC(=O)OC(C)(C)C)C(CC)(CC)N1[O] (stereo not shown) [compound 8, 3-(((tert-Butoxycarbonyl)amino)methyl)-2,2,5,5-tetraethyl-4-(hydroxymethyl)pyrrolidin-1-oxyl]
kred × 10^4 (rate of reduction with ascorbate) [1]: 6.0 ± 2.0 M^−1 s^−1

CCC1(CC)C(CN)C(CN(C)C)C(CC)(CC)N1[O] (stereo not shown) [14a, 3-(Aminomethyl)-4-((dimethylamino)methyl)-2,2,5,5-tetraethylpyrrolidin-1-oxyl]
pK, first protonation (free base to monocation) [2]: ca. 11
pKa, second protonation (monocation to dication) [2]: ca. 3
pKa, second protonation (monocation to dication) ([2]; listed as N,N-dimethyl-3,4-bis-(aminomethyl)-2,2,5,5-tetraethylpyrrolidine-1-oxyl): 3
kred × 10^4 (rate of reduction with ascorbate) [1]: 6.4 ± 1.0 M^−1 s^−1

3-((2,5-Dioxo-2,5-dihydro-1H-pyrrol-1-yl)methyl)-2,2,5,5-tetraethyl-4-((trimethylammonio)methyl)-2,5-dihydro-1H-pyrrol-1-oxyl monoiodide [16b]
partition octanol/buffer, result in words [3]: not detected in octanol

CCC1(CC)C(CNC(=O)OC(C)(C)C)C(COS(C)(=O)=O)C(CC)(CC)N1[O] (stereo not shown) [compound 9, 3-(((tert-Butoxycarbonyl)amino)methyl)-2,2,5,5-tetraethyl-4-(((methylsulfonyl)oxy)methyl)pyrrolidin-1-oxyl]
kred × 10^4 (rate of reduction with ascorbate) [1]: 3.0 ± 1.0 M^−1 s^−1

CCC1(CC)C(CN(C)C)C(CN2C(=O)C=CC2=O)C(CC)(CC)N1[O] (stereo not shown) [15a, 3-((Dimethylamino)methyl)-4-((2,5-dioxo-2,5-dihydro-1H-pyrrol-1-yl)methyl)-2,2,5,5-tetraethylpyrrolidin-1-oxyl]
pK (pH dependence of EPR spectra) [2]: ca. 9

CCC1(CC)C(CN)=C(CN(C)C)C(CC)(CC)N1[O] [14b, 3-(Aminomethyl)-4-((dimethylamino)methyl)-2,2,5,5-tetraethyl-2,5-dihydro-1H-pyrrol-1-oxyl]
partition coefficient (Kp) [3]: 7 ± 0.3
pK, first protonation (free base to monocation) [2]: ca. 11
pKa, second protonation (monocation to dication) [2]: ca. 3
kred × 10^4 (rate of reduction with ascorbate) [1]: 8 ± 1.0 M^−1 s^−1

CCC1(CC)C(CN=[N+]=[N-])C(CN(C)C)C(CC)(CC)N1[O] (stereo not shown) [11a, 3-(Azidomethyl)-4-((dimethylamino)methyl)-2,2,5,5-tetraethylpyrrolidin-1-oxyl]
partition coefficient (Kp) [3]: 52 ± 5
pK (pH dependence of EPR spectra) [2]: ca. 9
kred × 10^4 (rate of reduction with ascorbate) [1]: 4.0 ± 1.0 M^−1 s^−1

CCC1(CC)C(CN)C(CN=[N+]=[N-])C(CC)(CC)N1[O] (stereo not shown) [13a, 3-(Aminomethyl)-4-(azidomethyl)-2,2,5,5-tetraethylpyrrolidin-1-oxyl]
partition coefficient (Kp) [3]: 350 ± 35
pK (pH dependence of EPR spectra) [2]: ca. 9
kred × 10^4 (rate of reduction with ascorbate) [1]: 6.3 ± 0.9 M^−1 s^−1

CCC1(CC)C(CO)C(CN=[N+]=[N-])C(CC)(CC)N1[O] (stereo not shown) [compound 5, 3-(Azidomethyl)-2,2,5,5-tetraethyl-4-(hydroxymethyl)pyrrolidin-1-oxyl]
solubility in water (Solubility in water): poorly soluble in water

CCC1(CC)C(CN)=C(CN=[N+]=[N-])C(CC)(CC)N1[O] [13b, 3-(Aminomethyl)-4-(azidomethyl)-2,2,5,5-tetraethyl-2,5-dihydro-1H-pyrrol-1-oxyl]
partition coefficient (Kp) [3]: 45 ± 2
pK (pH dependence of EPR spectra) [2]: ca. 9
kred × 10^4 (rate of reduction with ascorbate) [1]: 7.6 ± 0.3 M^−1 s^−1

CCC1(CC)C(CO)C(CN2C(=O)C=CC2=O)C(CC)(CC)N1[O] (stereo not shown) [compound 7, 3-((2,5-Dioxo-2,5-dihydro-1H-pyrrol-1-yl)methyl)-2,2,5,5-tetraethyl-4-(hydroxymethyl)pyrrolidin-1-oxyl]
partition coefficient (Kp) [3]: 84 ± 2
solubility in water (Solubility in water): poorly soluble in water

3-(Azidomethyl)-2,2,5,5-tetraethyl-4-((trimethylammonio)methyl)-2,5-dihydro-1H-pyrrol-1-oxyl monoiodide [17b]
partition octanol/buffer, result in words [3]: not detected in octanol
kred × 10^4 (rate of reduction with ascorbate) [1]: 16 ± 3.0 M^−1 s^−1

3-((2,5-Dioxo-2,5-dihydro-1H-pyrrol-1-yl)methyl)-2,2,5,5-tetraethyl-4-((trimethylammonio)methyl)pyrrolidin-1-oxyl monoiodide [16a]
partition octanol/buffer, result in words [3]: not detected in octanol

CCC1(CC)C(CN(C)C)=C(CN2C(=O)C=CC2=O)C(CC)(CC)N1[O] [15b, 3-((Dimethylamino)methyl)-4-((2,5-dioxo-2,5-dihydro-1H-pyrrol-1-yl)methyl)-2,2,5,5-tetraethyl-2,5-dihydro-1H-pyrrol-1-oxyl]
pK (pH dependence of EPR spectra) [2]: ca. 9

CCC1(CC)C(CN)C(CO)C(CC)(CC)N1[O] (stereo not shown) [compound 6, 3-(Aminomethyl)-2,2,5,5-tetraethyl-4-(hydroxymethyl)pyrrolidin-1-oxyl]
pK (pH dependence of EPR spectra) [2]: ca. 9

CCC1(CC)CC(C(=O)O)C(CC)(CC)N1[O] (stereo not shown) [compound 21, 3-carboxy-2,2,5,5-tetraethylpyrrolidine-1-oxyl, reference compound]
partition coefficient (Kp) [3]: 270
kred × 10^4 (rate of reduction with ascorbate) [4]: 12.5 ± 0.3 [22] M^−1 s^−1

CCC1(CC)C(CN=[N+]=[N-])C(CNC(=O)OC(C)(C)C)C(CC)(CC)N1[O] (stereo not shown) [compound 10, 3-(Azidomethyl)-4-((tert-butoxycarbonylamino)methyl)-2,2,5,5-tetraethylpyrrolidin-1-oxyl]
kred × 10^4 (rate of reduction with ascorbate) [1]: 3.0 ± 1.0 M^−1 s^−1

CCC1(CC)C(CN=[N+]=[N-])=C(CN(C)C)C(CC)(CC)N1[O] [11b, 3-(Azidomethyl)-4-((dimethylamino)methyl)-2,2,5,5-tetraethyl-2,5-dihydro-1H-pyrrol-1-oxyl]
partition coefficient (Kp) [3]: 15 ± 1
pK (pH dependence of EPR spectra) [2]: ca. 9
kred × 10^4 (rate of reduction with ascorbate) [1]: 15 ± 4.0 M^−1 s^−1

3-(Azidomethyl)-2,2,5,5-tetraethyl-4-((trimethylammonio)methyl)pyrrolidin-1-oxyl monoiodide [17a]
partition octanol/buffer, result in words [3]: not detected in octanol
kred × 10^4 (rate of reduction with ascorbate) [1]: 3.0 ± 1.0 M^−1 s^−1

CCC1(CC)C(CO)=C(CO)C(CC)(CC)N1[O] [compound 22, 2,2,5,5-tetraethyl-3,4-bis(hydroxymethyl)-2,5-dihydro-1H-pyrrol-1-oxyl, reference compound]
partition coefficient (Kp) [3]: 37 ± 2
kred × 10^4 (rate of reduction with ascorbate) [1]: 3.4 ± 0.1 M^−1 s^−1

CCC1(CC)C(CO)C(CO)C(CC)(CC)N1[O] (stereo not shown) [compound 1, 3,4-bis-hydroxymethyl-2,2,5,5-tetraethylpyrrolidine-1-oxyl]
partition coefficient (Kp) [3]: 41 ± 2
kred × 10^4 (rate of reduction with ascorbate) [4]: 3.3 ± 0.8 [26] M^−1 s^−1

CCC1(CC)C(CN=[N+]=[N-])C(Cn2nnc(C(=O)[O-])c2C(=O)O)C(CC)(CC)N1[O].[Na+] (stereo not shown) [compound 20, 3-(Azidomethyl)-4-((4,5-dicarboxy-1H-1,2,3-triazol-1-yl)methyl)-2,2,5,5-tetraethylpyrrolidin-1-oxyl monosodium salt]
partition octanol/buffer, result in words [3]: not detected in octanol
kred × 10^4 (rate of reduction with ascorbate) [1]: 5.9 ± 1.2 M^−1 s^−1
